Experiment: xn = mol fraction of the nth substance listed
Conditions: 101 kPa, Liquid; for mass density: Vibrating tube method

NCCO.O=CO [2-hydroxyethylammonium formate] + CCO
Conditions	mass density [kg/m3]	speed of sound [m/s]
288.15 K, x2 = 0	1183.57	1733.9
288.15 K, x2 = 0.058	1172.99	1741.5
288.15 K, x2 = 0.098	1161.05	1723
288.15 K, x2 = 0.193	1135.72	1681.5
288.15 K, x2 = 0.296	1110.04	1639
288.15 K, x2 = 0.399	1079.51	1587.5
288.15 K, x2 = 0.5	1044.58	1529.7
288.15 K, x2 = 0.598	1006.57	1468.7
288.15 K, x2 = 0.701	963.374	1402.4
288.15 K, x2 = 0.799	914.502	1333.5
288.15 K, x2 = 0.9	859.222	1261.8
288.15 K, x2 = 0.95	828.585	1223.4
290.65 K, x2 = 0	1181.81	1727.4
290.65 K, x2 = 0.058	1171.33	1736.2
290.65 K, x2 = 0.098	1159.38	1717.6
290.65 K, x2 = 0.193	1134.02	1675.9
290.65 K, x2 = 0.296	1108.32	1633.2
290.65 K, x2 = 0.399	1077.76	1581.4
290.65 K, x2 = 0.5	1042.78	1523.3
290.65 K, x2 = 0.598	1004.72	1461.9
290.65 K, x2 = 0.701	961.474	1395.3
290.65 K, x2 = 0.799	912.536	1326
290.65 K, x2 = 0.9	857.183	1253.7
290.65 K, x2 = 0.95	826.503	1215
293.15 K, x2 = 0	1180.04	1721.3
293.15 K, x2 = 0.058	1169.68	1730.9
293.15 K, x2 = 0.098	1157.72	1712.2
293.15 K, x2 = 0.193	1132.33	1670.3
293.15 K, x2 = 0.296	1106.6	1627.4
293.15 K, x2 = 0.399	1076	1575.3
293.15 K, x2 = 0.5	1040.98	1517
293.15 K, x2 = 0.598	1002.88	1455.1
293.15 K, x2 = 0.701	959.571	1388.2
293.15 K, x2 = 0.799	910.569	1318.5
293.15 K, x2 = 0.9	855.141	1245.7
293.15 K, x2 = 0.95	824.416	1206.8
295.65 K, x2 = 0	1178.27	1715.1
295.65 K, x2 = 0.058	1168.03	1725.6
295.65 K, x2 = 0.098	1156.05	1706.8
295.65 K, x2 = 0.193	1130.64	1664.8
295.65 K, x2 = 0.296	1104.87	1621.7
295.65 K, x2 = 0.399	1074.24	1569.2
295.65 K, x2 = 0.5	1039.18	1510.6
295.65 K, x2 = 0.598	1001.03	1448.4
295.65 K, x2 = 0.701	957.67	1381.1
295.65 K, x2 = 0.799	908.602	1311
295.65 K, x2 = 0.9	853.093	1237.8
295.65 K, x2 = 0.95	822.326	1198.5
298.15 K, x2 = 0	1176.49	1709
298.15 K, x2 = 0.058	1166.37	1720.4
298.15 K, x2 = 0.098	1154.38	1701.5
298.15 K, x2 = 0.193	1128.94	1659.3
298.15 K, x2 = 0.296	1103.15	1615.9
298.15 K, x2 = 0.399	1072.49	1563.2
298.15 K, x2 = 0.5	1037.38	1504.3
298.15 K, x2 = 0.598	999.182	1441.7
298.15 K, x2 = 0.701	955.767	1374.1
298.15 K, x2 = 0.799	906.63	1303.6
298.15 K, x2 = 0.9	851.045	1229.8
298.15 K, x2 = 0.95	820.231	1190.2
300.65 K, x2 = 0	1174.71	1702.9
300.65 K, x2 = 0.058	1164.71	1715.2
300.65 K, x2 = 0.098	1152.72	1696.1
300.65 K, x2 = 0.193	1127.25	1653.7
300.65 K, x2 = 0.296	1101.44	1610.2
300.65 K, x2 = 0.399	1070.73	1557.2
300.65 K, x2 = 0.5	1035.58	1498
300.65 K, x2 = 0.598	997.335	1435.1
300.65 K, x2 = 0.701	953.861	1367
300.65 K, x2 = 0.799	904.657	1296.1
300.65 K, x2 = 0.9	848.99	1221.9
300.65 K, x2 = 0.95	818.13	1182
303.15 K, x2 = 0	1172.94	1696.8
303.15 K, x2 = 0.058	1163.06	1709.9
303.15 K, x2 = 0.098	1151.05	1690.8
303.15 K, x2 = 0.193	1125.56	1648.2
303.15 K, x2 = 0.296	1099.72	1604.4
303.15 K, x2 = 0.399	1068.98	1551.2
303.15 K, x2 = 0.5	1033.79	1491.7
303.15 K, x2 = 0.598	995.485	1428.4
303.15 K, x2 = 0.701	951.952	1360
303.15 K, x2 = 0.799	902.677	1288.7
303.15 K, x2 = 0.9	846.93	1214
303.15 K, x2 = 0.95	816.023	1173.8
305.65 K, x2 = 0	1171.16	1690.8
305.65 K, x2 = 0.058	1161.41	1704.7
305.65 K, x2 = 0.098	1149.39	1685.5
305.65 K, x2 = 0.193	1123.87	1642.7
305.65 K, x2 = 0.296	1098	1598.7
305.65 K, x2 = 0.399	1067.22	1545.2
305.65 K, x2 = 0.5	1031.98	1485.4
305.65 K, x2 = 0.598	993.634	1421.8
305.65 K, x2 = 0.701	950.042	1353.1
305.65 K, x2 = 0.799	900.694	1281.3
305.65 K, x2 = 0.9	844.863	1206.1
305.65 K, x2 = 0.95	813.907	1165.7
308.15 K, x2 = 0	1169.39	1684.8
308.15 K, x2 = 0.058	1159.76	1699.5
308.15 K, x2 = 0.098	1147.72	1680.2
308.15 K, x2 = 0.193	1122.18	1637.3
308.15 K, x2 = 0.296	1096.28	1593
308.15 K, x2 = 0.399	1065.47	1539.2
308.15 K, x2 = 0.5	1030.18	1479.2
308.15 K, x2 = 0.598	991.781	1415.2
308.15 K, x2 = 0.701	948.127	1346.1
308.15 K, x2 = 0.799	898.707	1274
308.15 K, x2 = 0.9	842.788	1198.3
308.15 K, x2 = 0.95	811.783	1157.6
310.65 K, x2 = 0	1167.62	1678.7
310.65 K, x2 = 0.058	1158.11	1694.4
310.65 K, x2 = 0.098	1146.06	1674.9
310.65 K, x2 = 0.193	1120.49	1631.8
310.65 K, x2 = 0.296	1094.56	1587.4
310.65 K, x2 = 0.399	1063.71	1533.3
310.65 K, x2 = 0.5	1028.38	1473
310.65 K, x2 = 0.598	989.927	1408.7
310.65 K, x2 = 0.701	946.21	1339.3
310.65 K, x2 = 0.799	896.716	1266.7
310.65 K, x2 = 0.9	840.709	1190.5
310.65 K, x2 = 0.95	809.653	1149.5
313.15 K, x2 = 0	1165.84	1672.7
313.15 K, x2 = 0.058	1156.45	1689.2
313.15 K, x2 = 0.098	1144.4	1669.8
313.15 K, x2 = 0.193	1118.8	1626.3
313.15 K, x2 = 0.296	1092.84	1581.7
313.15 K, x2 = 0.399	1061.95	1527.4
313.15 K, x2 = 0.5	1026.57	1466.8
313.15 K, x2 = 0.598	988.066	1402.2
313.15 K, x2 = 0.701	944.29	1332.3
313.15 K, x2 = 0.799	894.718	1259.3
313.15 K, x2 = 0.9	838.621	1182.7
313.15 K, x2 = 0.95	807.511	1141.4
315.65 K, x2 = 0	1164.06	1666.7
315.65 K, x2 = 0.058	1154.81	1684.1
315.65 K, x2 = 0.098	1142.73	1664.5
315.65 K, x2 = 0.193	1117.11	1620.9
315.65 K, x2 = 0.296	1091.12	1576
315.65 K, x2 = 0.399	1060.19	1521.5
315.65 K, x2 = 0.5	1024.77	1460.5
315.65 K, x2 = 0.598	986.208	1395.6
315.65 K, x2 = 0.701	942.365	1325.5
315.65 K, x2 = 0.799	892.716	1252
315.65 K, x2 = 0.9	836.524	1174.9
315.65 K, x2 = 0.95	805.362	1133.4
318.15 K, x2 = 0	1162.29	1660.8
318.15 K, x2 = 0.058	1153.16	1679
318.15 K, x2 = 0.098	1141.07	1659.2
318.15 K, x2 = 0.193	1115.42	1615.5
318.15 K, x2 = 0.296	1089.4	1570.4
318.15 K, x2 = 0.399	1058.44	1515.6
318.15 K, x2 = 0.5	1022.96	1454.4
318.15 K, x2 = 0.598	984.346	1389.2
318.15 K, x2 = 0.701	940.437	1318.7
318.15 K, x2 = 0.799	890.71	1244.8
318.15 K, x2 = 0.9	834.423	1167.2
318.15 K, x2 = 0.95	803.205	1125.4
320.65 K, x2 = 0	1160.51	1654.8
320.65 K, x2 = 0.058	1151.51	1673.9
320.65 K, x2 = 0.098	1139.41	1654
320.65 K, x2 = 0.193	1113.73	1610.1
320.65 K, x2 = 0.296	1087.69	1564.8
320.65 K, x2 = 0.399	1056.68	1509.9
320.65 K, x2 = 0.5	1021.15	1448.2
320.65 K, x2 = 0.598	982.484	1382.8
320.65 K, x2 = 0.701	938.509	1311.8
320.65 K, x2 = 0.799	888.697	1237.6
320.65 K, x2 = 0.9	832.314	1159.5
320.65 K, x2 = 0.95	801.039	1117.5
323.15 K, x2 = 0	1158.73	1648.9
323.15 K, x2 = 0.058	1149.88	1668.8
323.15 K, x2 = 0.098	1137.78	1648.8
323.15 K, x2 = 0.193	1112.06	1604.7
323.15 K, x2 = 0.296	1085.98	1559.4
323.15 K, x2 = 0.399	1054.93	1504.2
323.15 K, x2 = 0.5	1019.35	1442.1
323.15 K, x2 = 0.598	980.632	1376.5
323.15 K, x2 = 0.701	936.584	1305.1
323.15 K, x2 = 0.799	886.69	1230.5
323.15 K, x2 = 0.9	830.212	1152
323.15 K, x2 = 0.95	798.879	1109.7

Reference: the NIST ThermoML archive (doi:10.1016/j.jct.2007.05.011)
